Measurements from patent US10934297B2, “5-heteroaryl substituted indazole-3-carboxamides and preparation and use thereof” (Samumed, LLC, priority 2018, dated 2021).
pEC50, pIC50: −log10 of the molar value.

Legend:
[1] = system: primary human fibroblasts derived from IPF patients (LL29 cells); experiment: Inhibition of the fibrotic process: αSMA staining in TGF-β1 treated LL29 fibroblasts; type: cell-based; details: Homo sapiens, Fibroblast; for pEC50: 96 h, LL29 cells, TGF-β1 20 ng/mL, 4 days, % αSMA positive cells; for inhibition at 10 µM: read-out: percent inhibition at 10 μM
How it was run: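 LL29 fibroblasts from IPF patients, in F12 medium with 1% FBS, treated with TGF-β1 plus compound; TGF-β1 with DMSO as positive control, DMSO alone as negative control. After 4 days' incubation, SYTOX green nucleic acid stain added at 1 μM final, 30 min at room temperature.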

[2] = system: SW480 colon carcinoma cells; experiment: Cell viability assay (CellTiter-Glo) in SW480 colon carcinoma cells; type: cell-based, human; details: Homo sapiens, 96 h, four days
How it was run: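 SW480 cells stably carrying an Sp5-promoter luciferase reporter were plated at 2,000 cells/well in DMEM with 1% FBS and treated with compound for four days at 37 °C. Viability was read as ATP luminescence with CellTiter-Glo after about 12 min; DMSO-treated wells served as controls.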

[3] = system: Wnt activity (Sp5-Luc reporter in SW480 cells); experiment: Screening assay for Wnt activity: Sp5-Luc reporter gene assay in SW480 colon carcinoma cells; type: cell-based, human; details: Homo sapiens, 36 to 48 hours
How it was run: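 SW480 colon carcinoma cells stably carrying a lentiviral luciferase reporter driven by an Sp5 promoter with eight TCF/LEF sites, plated at 4,000 cells/well in DMEM with 1% FBS. Compound exposure for 36–48 h at 37 °C, then luminescence read. Signals normalized to DMSO; EC50 from four-parameter nonlinear fit.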

[4] = biological target: DYRK1A kinase (Homo sapiens (Human), UniProt Q13627); experiment: DYRK1A kinase assay (Ser/Thr 18 peptide Z-lyte FRET); type: biochemical; details: read-out: EC50 (method: IC50)
How it was run: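 This Z-lyte FRET assay reads the coumarin/fluorescein emission ratio. Compounds were incubated with the reaction mixture for 1 h at room temperature, followed by development reagent for a further 1 h at room temperature, in duplicate.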

[5] = system: primary human mesenchymal stem cells (hMSCs); experiment: Tenocyte differentiation assay (SCXA-positive cells) in hMSCs; type: cell-based; details: for pEC50: Homo sapiens, Mesenchymal stem cells, 96 h, hMSCs, 4 days, SCXA positive cells; for percent in parentheses under EC50 >100: given for EC50 >100 μM, meaning not defined in this example
Source text: Representative compounds were screened using primary human mesenchymal stem cells (hMSCs) to determine their ability to induce tenocyte differentiation (process by which tendon is developed).
Primary human mesenchymal stem cells (hMSCs) were purchased from Lonza (Walkersville, Md.) and expanded in Mesenchymal Stem Cell Growth Media (Lonza). Cells between passage 3 and 6 were used for the experiments.
Cells were fixed using 4% formaldehyde (Electron Microscopy Sciences), and stained with anti-Sclerasis (anti-SCXA) antibodies (Abgent, San Diego, Calif.) [Webb S., et.al., Retinoic acid receptor signaling preserves tendon stem cell characteristics and prevents spontaneous differentiation in vitro, Stem Cell Research & Therapy 2016, 7:45] overnight at 4° C. […] Number of cells positive for SCXA in each well was quantified using the CellInsight CX5. Data was normalized to the average of 12 DMSO treated wells on the same plate using Dotmatics Studies module. The normalized averages (fold change over DMSO) of 3 replicate wells for each compound concentration were calculated. Due to solubility limitations of some of the compounds, values for higher doses were manually corrected and curve fitting and EC50 determinations were performed using Dotmatics Studies.

[6] = biological target: GSK3β kinase (Homo sapiens (Human), UniProt P49841); experiment: GSK3β kinase assay (Ser/Thr 09 peptide Z-lyte FRET); type: biochemical; details: read-out: EC50 (method: IC50)
GSK3β kinase, sequence (P49841 whole entry): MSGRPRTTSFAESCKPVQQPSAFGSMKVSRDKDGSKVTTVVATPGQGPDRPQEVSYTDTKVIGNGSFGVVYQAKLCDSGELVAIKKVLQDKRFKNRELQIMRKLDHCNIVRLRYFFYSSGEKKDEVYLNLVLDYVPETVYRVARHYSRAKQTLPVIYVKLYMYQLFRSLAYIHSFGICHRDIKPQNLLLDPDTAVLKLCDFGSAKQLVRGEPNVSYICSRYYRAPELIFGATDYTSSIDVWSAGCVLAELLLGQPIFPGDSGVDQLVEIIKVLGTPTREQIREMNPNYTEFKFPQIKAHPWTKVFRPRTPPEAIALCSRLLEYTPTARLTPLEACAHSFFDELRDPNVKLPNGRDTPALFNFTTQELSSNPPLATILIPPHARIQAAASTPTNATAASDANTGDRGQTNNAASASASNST
How it was run: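 Non-radioactive Z-lyte FRET read-out, kinase activity expressed as coumarin/fluorescein emission ratio. Compounds incubated with the reaction mixture one hour at room temperature in duplicate, then development buffer added for another hour. IC50 from non-linear regression of dose-response curves.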

[7] = system: IL-6; experiment: IL-6 inhibition in LPS-stimulated human peripheral blood mononuclear cells (HTRF); type: cell-based; details: Homo sapiens, PBMC; for pEC50: huPBMCs, LPS 50 ng/mL, 22 hours, IL-6 HTRF; for inhibition at 10 µM: read-out: percent inhibition at 10 μM
How it was run: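 Fresh human PBMCs at 1×10e6 cells/mL in RPMI/1% FBS were stimulated with 50 ng/mL E. coli 0111:B4 LPS added 2 h after compound, then incubated 22 h at 37° C. Secreted IL-6 was measured by HTRF (665/620 nm ratio) after 3 h at room temperature. EC50 was taken from activity normalized to DMSO-treated cells.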

Compound	pEC50 [2]	pEC50 [3]	pIC50 [4]	pEC50 [5]	percent in parentheses under EC50 >100 [5]	pIC50 [6]	pEC50 [7]	pEC50 [1]	inhibition at 10 µM [7] [%]	inhibition at 10 µM [1] [%]
CN1CCC(Oc2ccc(NC(=O)c3n[nH]c4ccc(-c5cnn(C)c5)cc34)cc2)CC1 [Compound 122, 5-(1-Methyl-1H-pyrazol-4-yl)-N-(4-((1-methylpiperidin-4-yl)oxy)phenyl)-1H-indazole-3-carboxamide]	6.42	6.69	8.70	< 4.00	(37.4%)	7.42	6.02	5.58	–	–
CN1CCC(Oc2ccc(NC(=O)c3n[nH]c4ccc(-c5cnn(C)c5)cc34)cn2)CC1 [Compound 124, 5-(1-Methyl-1H-pyrazol-4-yl)-N-(6-((1-methylpiperidin-4-yl)oxy)pyridin-3-yl)-1H-indazole-3-carboxamide]	6.77	6.85	9.00	6.50	–	7.64	6.00	7.00	–	–
CN1CCC(n2cc(-c3ccc4[nH]nc(C(=O)Nc5cncc(F)c5)c4c3)cn2)CC1 [Compound 125, N-(5-Fluoropyridin-3-yl)-5-(1-(1-methylpiperidin-4-yl)-1H-pyrazol-4-yl)-1H-indazole-3-carboxamide]	6.18	6.45	8.10	< 4.00	(12.3%)	6.56	5.45	6.22	–	–
CN1CCC(n2cc(-c3cc4c(C(=O)Nc5cncc(F)c5)n[nH]c4cc3F)cn2)CC1 [Compound 126, 6-Fluoro-N-(5-fluoropyridin-3-yl)-5-(1-(1-methylpiperidin-4-yl)-1H-pyrazol-4-yl)-1H-indazole-3-carboxamide]	5.81	6.47	8.05	5.59	–	6.63	5.24	5.61	–	–
CN1CCC(Oc2ccc(NC(=O)c3n[nH]c4c(F)cc(-c5cnn(C)c5)cc34)cn2)CC1 [Compound 129, 7-Fluoro-5-(1-methyl-1H-pyrazol-4-yl)-N-(6-((1-methylpiperidin-4-yl)oxy)pyridin-3-yl)-1H-indazole-3-carboxamide]	5.52	5.21	7.52	< 4.00	(13.0%)	7.06	5.17	5.73	–	–
CC[C@H](NC(=O)c1n[nH]c2ccc(-c3cnc(C)n3C)cc12)C(F)(F)F [Compound 132, (S)-5-(1,2-Dimethyl-1H-imidazol-5-yl)-N-(1,1,1-trifluorobutan-2-yl)-1H-indazole-3-carboxamide]	< 5.00	< 5.00	6.34	< 4.00	(26.5%)	6.97	< 5.00	< 5.00	12.7	48.8
Cc1ncc(-c2ccc3[nH]nc(C(=O)N[C@@H](C(C)C)C(F)(F)F)c3c2)n1C [Compound 133, (S)-5-(1,2-Dimethyl-1H-imidazol-5-yl)-N-(1,1,1-trifluoro-3-methylbutan-2-yl)-1H-indazole-3-carboxamide]	< 5.00	< 5.00	6.03	< 4.00	(15.8%)	5.87	< 5.00	< 5.00	20.2	35.8
Cc1ncc(-c2cc(F)c3[nH]nc(C(=O)N[C@@H](C)C(F)(F)F)c3c2)n1C [Compound 134, (S)-5-(1,2-Dimethyl-1H-imidazol-5-yl)-7-fluoro-N-(1,1,1-trifluoropropan-2-yl)-1H-indazole-3-carboxamide]	< 5.00	< 5.00	6.32	< 4.00	(38.8%)	7.34	< 5.00	5.97	8.1	–
CN1CCC(n2cc(NC(=O)c3n[nH]c4ccc(-c5cnn(C)c5)cc34)cn2)CC1 [Compound 141, 5-(1-Methyl-1H-pyrazol-4-yl)-N-(1-(1-methylpiperidin-4-yl)-1H-pyrazol-4-yl)-1H-indazole-3-carboxamide]	7.19	7.10	9.00	6.03	–	8.40	6.42	6.99	–	–

More lines, main results first:

pEC50 [2]	pEC50 [3]	pIC50 [4]	pEC50 [5]	percent in parentheses under EC50 >100 [5]	pIC50 [6]	pEC50 [7]	Compound	pEC50 [1]	inhibition at 10 µM [7] [%]	inhibition at 10 µM [1] [%]
7.03	7.00	8.40	5.60	–	6.61	6.10	Cc1ncc(NC(=O)c2n[nH]c3cc(F)c(-c4cnn(C5CCN(C)CC5)c4)cc23)s1 [Compound 127, 6-Fluoro-5-(1-(1-methylpiperidin-4-yl)-1H-pyrazol-4-yl)-N-(2-methylthiazol-5-yl)-1H-indazole-3-carboxamide]	7.32	–	–
6.31	6.74	8.30	5.24	–	6.20	5.48	CNC(=O)c1ccc(NC(=O)c2n[nH]c3ccc(-c4cnn(C5CCN(C)CC5)c4)cc23)cn1 [Compound 128, N-(6-(Methylcarbamoyl)pyridin-3-yl)-5-(1-(1-methylpiperidin-4-yl)-1H-pyrazol-4-yl)-1H-indazole-3-carboxamide]	6.36	–	–
5.52	< 5.00	6.66	5.56	–	7.57	< 5.00	Cc1ncc(-c2ccc3[nH]nc(C(=O)N[C@@H](C)C(F)(F)F)c3c2)n1C [Compound 131, (S)-5-(1,2-Dimethyl-1H-imidazol-5-yl)-N-(1,1,1-trifluoropropan-2-yl)-1H-indazole-3-carboxamide]	5.35	15.1	–
< 5.00	< 5.00	6.36	< 4.00	(16.1%)	7.37	< 5.00	C[C@H](NC(=O)c1n[nH]c2c(F)cc(-c3cnn(C)c3)cc12)C(F)(F)F [Compound 135, (S)-7-Fluoro-5-(1-methyl-1H-pyrazol-4-yl)-N-(1,1,1-trifluoropropan-2-yl)-1H-indazole-3-carboxamide]	< 5.00	50.6	–
5.28	5.37	5.08	5.61	–	5.87	< 5.00	Cn1cc(-c2ccc3[nH]nc(C(=O)NC45CC6CC(CC(C6)C4)C5)c3c2)cn1 [Compound 137, N-((3s,5s,7s)-Adamantan-1-yl)-5-(1-methyl-1H-pyrazol-4-yl)-1H-indazole-3-carboxamide]	5.68	–	–
6.98	6.90	8.22	5.31	–	6.71	5.56	Cc1coc(NC(=O)c2n[nH]c3cc(F)c(-c4cnn(C5CCN(C)CC5)c4)cc23)n1 [Compound 138, 6-Fluoro-N-(4-methyloxazol-2-yl)-5-(1-(1-methylpiperidin-4-yl)-1H-pyrazol-4-yl)-1H-indazole-3-carboxamide]	6.36	–	–
5.59	6.15	8.70	< 4.00	(12.6%)	8.30	5.90	Cn1cc(-c2ccc3[nH]nc(C(=O)Nc4cnn(C5CCNCC5)c4)c3c2)cn1 [Compound 140, 5-(1-Methyl-1H-pyrazol-4-yl)-N-(1-(piperidin-4-yl)-1H-pyrazol-4-yl)-1H-indazole-3-carboxamide]	6.52	–	–
